From US20010004643A1, “Pharmaceutical composition with sotalol combination and their use in treatment of cardiac ailments” (priority 1999, published 2001)
Marks after values point to notes of the source that are not given here.

How the values were obtained:
[1] = tested on: ouabain induced arrhythmia (VT, VF, mortality); test: Ouabain induced arrhythmia model in guinea pig; format: in vivo; conditions: for actual incidence of mortality (value in parenthesis): 60 min; for actual incidence of mortality (value in parenthesis) / actual incidence of VF (value in parenthesis) / actual incidence of VT (value in parenthesis): number of animals of the group; for % INCIDENCE OF MORTALITY: mortality at 60 min; for deaths due to conduction block (60 min), actual incidence (value in parenthesis) / deaths due to tachyarrhythmia (60 min), actual incidence (value in parenthesis): number of animals; for % INCIDENCE OF VF / % INCIDENCE OF VT: ouabain 240 μg/kg in three doses, observed one hour; for DEATHS DUE TO CONDUCTION BLOCK (60 MIN) Percentage / DEATHS DUE TO TACHYARRHYTHMIA (60 MIN) Percentage: percentage deaths out of total mortality
Source text: Method: Guinea pigs (Dunken Hartley) of either sex weighing between 400 and 500 g were used for the study. The animals were anesthetized with urethane (1.25 g/kg. i.p.). The left common carotid artery and left jugular vein were cannulated for arterial blood pressure monitoring and intravenous access respectively. Lead II electrocardiogram, arterial blood pressure, mean arterial blood pressure (MABP), heart rate were monitored throughout the experiment.
After initial surgical preparations and allowing 30 minutes for the animal to stabilise the first dose of ouabain (90 μg/kg) was administered over a period of one minute. After the interval of thirty minutes, second dose of ouabain (60 μg/kg) was administered over a period of one minute. One minute after this dose, 0.5 ml saline (in control experiments) was administered over a period of one minute. After an interval of 10 minutes a third dose of ouabain (90 μg/kg) was administered over a period of one minute. […] The test compounds were administered to animals in test group in place of saline to evaluate their antiarrhythmic potential. From the ECG recordings, the incidence of VT, VF and mortality were recorded. The doses of ratios of sotalol isomers studied were 0.1, 0.5 and 2.5 mg/kg.
Interpretation of ECG recordings: Minor disturbance in rhythm was not considered while evaluating ventricular tachyarrhythmias. A run of more than 3 ventricular ectopic beats having wide QRS complexes associated with partial haemodynamic collapse was considered as Ventricular Tachycardia (VT). Total morphological irregularity of repetitive complexes for at least six cycles associated with complete haemodynamic collapse was considered as Ventricular Fibrillation (VF). Successful arrhythmia protection was defined as no occurrence of VT and VF from the injection of saline/test drug till the end of the experiment.
Statistics: Chi square test with continuity correction at 95% confidence limit was applied to find out the statistical significance between control and test groups for incidence of VT, VF and mortality. Whenever, any of the value in a cell was less than 5, Fischer's exact probability test was used.
Results: Different ratios of sotalol in the dose range from 0.02 mg/kg to 12.5 mg/kg were studied in individual groups of animals. In all 18 groups were studied and at least 6 animals were used in each group. In control animals ouabain 240 μg/kg in three divided doses induced reproducible ventricular tachyarrhythmias in guinea pigs. It was observed that ventricular arrhythmias appeared after the administration of the third dose. Guinea pigs which responded early i.e. before or within 1 min. of administration of the second dose, were considered early responders and were not included in the study. […] In the study, control experiments were carried out randomly interspersed in test groups. Among the 42 control animals the incidence of VT was 81%, incidence of VF was 71.4% and the incidence of mortality at 60 minutes was 61.9%.

[2] = tested on: beta adrenergic blockade, isolated right auricle preparation of rabbit; test: Beta blocking potency (pA2 against isoprenaline) in isolated rabbit right auricle; conditions: isoprenaline chronotropic response, Schild's plot
Protocol: Estimation of the beta blockade of various ratios of d- and l- isomers of sotalol was carried out in the isolated right auricle preparation of rabbit. The spontaneously beating right atrium was dissected and mounted in a 20 ml tissue bath. The resting tension on the atria was set at 1 g. The contractions were recorded using a force displacement transducer. The spontaneous contractions of the right atria were recorded isometrically and the heart rate was obtained as a derived parameter using a ratemeter that gave the output in beats per minute. Six different ratios of d and l isomers were investigated (1:1, 2:1, 3:1, 4:1, 5:1 and 1:0). Dose-response-curves (DRC) for isoprenaline in the isolated atria, using the chronotropic response were determined by cumulative addition of isoprenaline. The pA2 values of each of the ratios were estimated using the classical Schild's plot (Schild, 1957) and the values are shown in Table 1.

[3] = guinea pig, in vivo, listed as 4:1 ratio (d:l)

## CC(C)NCC(O)c1ccc(NS(C)(=O)=O)cc1 (stereo not drawn) [4:1 RATIO, N-[4-[1-hydroxy-2-[(1-methylethyl)amino]ethyl]phenyl] methane sulfonamide]
[1]; 0.5 mg/kg
  actual incidence of mortality (value in parenthesis): (2)
  % INCIDENCE OF MORTALITY: 33.3%
  deaths due to conduction block (60 min), actual incidence (value in parenthesis): (1)
  deaths due to tachyarrhythmia (60 min), actual incidence (value in parenthesis): (1)
  actual incidence of VF (value in parenthesis): (6)
  actual incidence of VT (value in parenthesis): (6)
  % INCIDENCE OF VF: 100.0%
  % INCIDENCE OF VT: 100.0%
  DEATHS DUE TO CONDUCTION BLOCK (60 MIN) Percentage: 50.0%
  DEATHS DUE TO TACHYARRHYTHMIA (60 MIN) Percentage: 50.0%
[1]; 2.5 mg/kg
  protection against VF: some protection
  protection against ouabain induced VT: some protection
  actual incidence of mortality (value in parenthesis): (2)
  % INCIDENCE OF MORTALITY: 33.3%
  deaths due to conduction block (60 min), actual incidence (value in parenthesis): (2)
  deaths due to tachyarrhythmia (60 min), actual incidence (value in parenthesis): (0)
  actual incidence of VF (value in parenthesis): (2)
  actual incidence of VT (value in parenthesis): (2)*
  % INCIDENCE OF VF: 33.3%
  % INCIDENCE OF VT: 33.3%
  DEATHS DUE TO CONDUCTION BLOCK (60 MIN) Percentage: 100.0%
  DEATHS DUE TO TACHYARRHYTHMIA (60 MIN) Percentage: 00.0%
[1]; 2.5 mg/kg, listed as 4:1
  protection against arrhythmias (VT and VF): could not protect
  % INCIDENCE OF MORTALITY: 33.3%
  % INCIDENCE OF VF: 33.3%
  % INCIDENCE OF VT: 33.3%
[1]; 12.5 mg/Kg
  protection against arrhythmias (VT and VF): could protect
[1]; 12.5 mg/kg
  actual incidence of mortality (value in parenthesis): (4)
  % INCIDENCE OF MORTALITY: 66.6%
  deaths due to conduction block (60 min), actual incidence (value in parenthesis): (3)
  deaths due to tachyarrhythmia (60 min), actual incidence (value in parenthesis): (1)
  actual incidence of VF (value in parenthesis): (0)*
  actual incidence of VT (value in parenthesis): (0)*
  % INCIDENCE OF VF: 00.0%
  % INCIDENCE OF VT: 00.0%
  DEATHS DUE TO CONDUCTION BLOCK (60 MIN) Percentage: 75.0%
  DEATHS DUE TO TACHYARRHYTHMIA (60 MIN) Percentage: 25.0%
[1]; 12.5 mg/kg, listed as 4:1 ratio
  % INCIDENCE OF MORTALITY: 66.6%
[1]; effective dose of 12.5 mg/kg
  mortality: significantly high
[1]; [3]
  dose at which complete protection against VT was observed: 12.5 mg/kg
  dose that completely protected against VF: 12.5 mg/kg
[2]; listed as 4:1
  pA2 Mean: 6.01

## CC(C)NCC(O)c1ccc(NS(C)(=O)=O)cc1 (stereo not drawn) [d-SOTALOL, N-[4-[1-hydroxy-2-[(1-methylethyl)amino]ethyl]phenyl] methane sulfonamide]
[1]; 0.5 mg/kg
  actual incidence of mortality (value in parenthesis): (5)
  % INCIDENCE OF MORTALITY: 50.0%
  deaths due to conduction block (60 min), actual incidence (value in parenthesis): (1)
  deaths due to tachyarrhythmia (60 min), actual incidence (value in parenthesis): (4)
  actual incidence of VF (value in parenthesis): (7)
  actual incidence of VT (value in parenthesis): (7)
  % INCIDENCE OF VF: 70.0%
  % INCIDENCE OF VT: 70.0%
  DEATHS DUE TO CONDUCTION BLOCK (60 MIN) Percentage: 20.0%
  DEATHS DUE TO TACHYARRHYTHMIA (60 MIN) Percentage: 80.0%
[1]; 2.5 mg/kg
  actual incidence of mortality (value in parenthesis): (6)
  % INCIDENCE OF MORTALITY: 66.6%
  deaths due to conduction block (60 min), actual incidence (value in parenthesis): (3)
  deaths due to tachyarrhythmia (60 min), actual incidence (value in parenthesis): (3)
  actual incidence of VF (value in parenthesis): (6)
  actual incidence of VT (value in parenthesis): (7)
  % INCIDENCE OF VF: 66.6%
  % INCIDENCE OF VT: 77.7%
  DEATHS DUE TO CONDUCTION BLOCK (60 MIN) Percentage: 50.0%
  DEATHS DUE TO TACHYARRHYTHMIA (60 MIN) Percentage: 50.0%
[1]; 12.5 mg/kg
  actual incidence of mortality (value in parenthesis): (6)
  % INCIDENCE OF MORTALITY: 100.0%
  deaths due to conduction block (60 min), actual incidence (value in parenthesis): (3)
  deaths due to tachyarrhythmia (60 min), actual incidence (value in parenthesis): (3)
  actual incidence of VF (value in parenthesis): (3)
  actual incidence of VT (value in parenthesis): (3)
  % INCIDENCE OF VF: 50.0%
  % INCIDENCE OF VT: 50.0%
  DEATHS DUE TO CONDUCTION BLOCK (60 MIN) Percentage: 50.0%
  DEATHS DUE TO TACHYARRHYTHMIA (60 MIN) Percentage: 50.0%
[1]; 12.5 mg/kg, listed as d-Sotalol
  % INCIDENCE OF MORTALITY: 100%
[1]; doses 2.5 mg/kg and 12.5 mg/kg
  cause of deaths: equally due to conduction abnormality as well as tachyarrhythmias
[1]; no dose stated
  protection against ouabain induced VF: ineffective
  protection against ouabain induced VT: ineffective
[2]; listed as 1:0
  pA2 Mean: 5.44
[2]; listed as pure d-isomer of sotalol
  pA2 Mean: 5.44
